These compounds were tested against T1, ML1a human melatonin receptor (Homo sapiens, UniProt P48039) (assay: Melatonergic Receptor Binding Activity (2-[125I]-iodomelatonin, membranes of NIH-3T3 cells expressing ML1a receptor)). Details: 37° C. for 1 hour, read-out: Melatonin Binding Affinity (IC50).
T1 construct: expressed in transfected cells
T1 sequence (P48039 whole entry): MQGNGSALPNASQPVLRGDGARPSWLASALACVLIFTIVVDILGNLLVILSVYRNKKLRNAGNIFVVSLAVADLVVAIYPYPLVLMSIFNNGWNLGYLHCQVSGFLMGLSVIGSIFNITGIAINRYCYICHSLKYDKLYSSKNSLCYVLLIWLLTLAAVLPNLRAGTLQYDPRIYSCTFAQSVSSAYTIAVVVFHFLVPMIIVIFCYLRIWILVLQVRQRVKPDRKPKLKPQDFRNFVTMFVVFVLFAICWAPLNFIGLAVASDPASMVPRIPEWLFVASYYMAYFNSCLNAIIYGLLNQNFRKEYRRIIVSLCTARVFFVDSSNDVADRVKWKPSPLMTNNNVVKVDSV
Experimental: Melatonergic Receptor Binding Activity
(a) TME=50 mM Tris buffer containing 12.5 mM MgCl2, and 2 mM EDTA, pH 7.4 at 37° C. with concentrated HCl.
(b) Wash buffer: 20 mM Tris base containing 2 mM MgCl2, pH 7.4 at room temperature.
(c) 10^-4 M melatonin (10^-5 M final concentration).
(d) 2-[^125 I]-iodomelatonin, […] final concentration
The melatonin ML1a receptor cDNA was subcloned into pcDNA3 and introduced into NIH-3T3 cells using Lipofectamine. Transformed NIH-3T3 cells resistant to geneticin (G-418) were isolated, and single colonies expressing high levels of 2[^125 I]-iodomelatonin binding were isolated. Cells are maintained in DMEM supplemented with 10% calf serum and G-418 (0.5 g/liter). Cells are grown to confluency in T-175 flasks, scraped using Hank's balanced salt solution, and frozen at -80° C. For preparing membrane homogenates, pellets are thawed on ice, and resuspended in TME buffer in the presence of 10 μg/ml aprotinin and leupeptin, and 100 μM phenylmethylsulfonylfluoride. The cells were then homogenized using a dounce homogenizer, and centrifuged. The resulting pellet was resuspended with dounce homogenizer in TME (supplemented with the above protease inhibitors) and frozen. On the day of assay, the small aliquot was thawed on ice and resuspended in ice cold TME (1:50-1:100 v/v) and held on ice until assayed.
3. Incubation: 37° C. for 1 hour. Reaction is terminated by filtration. Filters are washed 3 times.
For `CC(=O)NC[C@@H]1C[C@H]1c1cccc2c1OCO2` (relative stereo) [Example 3, (trans)-N-[[2-(1,3-benzodioxol-4-yl)cycloprop-1-yl]methyl]acetamide], the IC50 was < 10 nM. `CC(C)C(=O)NC[C@@H]1C[C@H]1c1cccc2c1OCO2` (relative stereo) [Example 11, (trans)-N-[[2-(1,3-benzodioxol-4-yl)cycloprop-1-yl]methyl]-2-methylpropanamide] showed an IC50 of 10 to 100 nM. Work on `O=C(NC[C@@H]1C[C@H]1c1cccc2c1OCCO2)C1CC1` (relative stereo) [Example 18, (trans)-N-[[2-(2,3-dihydro-1,^4-benzodioxin-5-yl)cycloprop-1-yl]-methyl]cyclopropane carboxamide] yielded an IC50 of 10 to 100 nM. `CCC(=O)NC[C@@H]1C[C@H]1c1cccc2occc12` (relative stereo) [Example 23, (trans)-N-[[2-(benzofuran-4-yl)cycloprop-1-yl]methyl]propanamide] was tested, and the IC50 was < 10 nM. For `CCC(=O)NC[C@@H]1C[C@H]1c1cccc2c1CCO2` (relative stereo) [Example 29, (trans)-N-[[2-(2,3-dihydrobenzofuran-4-yl)cycloprop-1-yl]methyl] propanamide], the IC50 was < 10 nM. With `CCCC(=O)NC[C@@H]1C[C@H]1c1cccc2c1CCO2` (relative stereo) [Example 30, (trans)-N-[[2-(2,3-dihydrobenzofuran-4-yl)cycloprop-1-yl]methyl] butanamide] the IC50 was < 10 nM. For `CC(=O)NC[C@@H]1C[C@H]1c1cccc2c1OCCCO2` (relative stereo) [Example 60], the IC50 was 10 to 100 nM. `CCC(=O)NC[C@@H]1C[C@H]1c1cccc2c1CCCCO2` (relative stereo) [Example 61] was tested, and the IC50 was 100 to 250 nM. With `O=C(NC[C@@H]1C[C@H]1c1cccc2c1OCC2)C1CC1` (relative stereo) [Example 67] the IC50 was 10 to 100 nM. With `CCCC(=O)NC[C@@H]1C[C@H]1c1cccc2oc(C)cc12` (relative stereo) [Example 76, (trans)-N-[[2-(2-methyl-benzofuran-4-yl)cycloprop-1-yl]methyl]-butanamide] the IC50 was < 10 nM. Work on `O=C(NC[C@@H]1C[C@H]1c1cccc2ccoc12)C1CC1` (relative stereo) [Example 80, (trans)-N-[[2-(benzofuran-7-yl)cycloprop-1-yl]methyl]-cyclopropanecarboxamide] yielded an IC50 of 10 to 100 nM. For `CCC(=O)NC[C@@H]1C[C@H]1c1cccc2c1CCO2` (single isomer, unassigned) [Example 2, (-)-(trans)-N-[[2-(2,3-Dihydrobenzofuran-4-yl)cycloprop-1-yl]methyl]propanamide], the IC50 was < 10 nM. For `CCC(=O)NC[C@@H]1C[C@H]1c1cccc2c1CCCO2` (single isomer, unassigned) [Example 42, (-)-(trans)-N-[[2-(3,4-dihydro-2H-1-benzopyran-5-yl)cycloprop-1-yl]methyl]propanamide], the IC50 was 10 to 100 nM. `C=CC(=O)NC[C@@H]1C[C@H]1c1cccc2c1OCCO2` (single isomer, unassigned) [Example 52] was tested, and the IC50 was < 10 nM. `O=C(NC[C@@H]1C[C@H]1c1cccc2c1OCCO2)C(F)(F)F` (single isomer, unassigned) [Example 54, (-)-(trans)-N-[[2-(2,3-dihydro-1,4-benzodioxin-5-yl)cycloprop-1-yl]methyl]trifluoroacetamide] was tested, and the IC50 was < 10 nM. With `CCC(=O)NC[C@@H]1C[C@H]1c1cccc2c1CCCO2` (single isomer, unassigned) [Example 96, (+)-(trans)-N-[[2-(3,4-dihydro-2H-1-benzopyran-5-yl)cycloprop-1-yl]methyl]propanamide] the IC50 was < 10 nM. `CCC(=O)NC[C@@H]1C[C@H]1c1cccc2c1CC(C)O2` (single isomer, unassigned; (+)) [Example 82, (+)-(trans)-N-[[2-(2-methyl-2,3-dihydrobenzofuran-4-yl)cycloprop-1-yl]methyl]propanamide] was tested, and the IC50 was < 10 nM. `CCC(=O)NC[C@@H]1C[C@H]1c1cccc2c1CC(C)O2` (single isomer, unassigned; (-)) [Example 88, (-)-(trans)-N-[[^2-(2-methyl-2,3-dihydrobenzofuran-4-yl)cycloprop-1-yl]methyl]propanamide] was tested, and the IC50 was < 10 nM. `CCC(=O)NCC1C(c2cccc3oc(C)cc23)C1(F)F` (stereo not shown) [Example 95, N-[[2-(2-Methyl-4-benzofuranyl)-3,3-difluorocyclopropanyl]-methyl]propanamide] showed an IC50 of 10 to 100 nM.

— patent US5856529A, “Benzofuran and dihydrobenzofuran melatonergic agents” (Bristol-Myers Squibb Company, priority 1997, dated 1999)
